# Source: the kinase profiling compilation of Christmann-Franck et al. (2016)
# Columns and labels:
# Experiment in all cases: radiometric filter-binding kinase assay
# [1] = molecular target: FGFR1 (human) (UniProt P11362)
# [2] = molecular target: MAP2K2 (human) (UniProt P36507)
# [3] = molecular target: MARK4 (human) (UniProt Q96L34)
# [4] = molecular target: PIM1 (human) (UniProt P11309)
# [5] = molecular target: MAPK8 (human) (UniProt P45983)
# [6] = tested on: PAK2 (human), Q13177 [T402E]
# [7] = molecular target: RIPK2 (human) (UniProt O43353)
# [8] = tested on: RPS6KB1 (human), P23443 [T412E]
# [9] = molecular target: EPHB2 (human) (UniProt P29323)
# Chain of EPHB2 (human) (P29323 whole entry, looked up): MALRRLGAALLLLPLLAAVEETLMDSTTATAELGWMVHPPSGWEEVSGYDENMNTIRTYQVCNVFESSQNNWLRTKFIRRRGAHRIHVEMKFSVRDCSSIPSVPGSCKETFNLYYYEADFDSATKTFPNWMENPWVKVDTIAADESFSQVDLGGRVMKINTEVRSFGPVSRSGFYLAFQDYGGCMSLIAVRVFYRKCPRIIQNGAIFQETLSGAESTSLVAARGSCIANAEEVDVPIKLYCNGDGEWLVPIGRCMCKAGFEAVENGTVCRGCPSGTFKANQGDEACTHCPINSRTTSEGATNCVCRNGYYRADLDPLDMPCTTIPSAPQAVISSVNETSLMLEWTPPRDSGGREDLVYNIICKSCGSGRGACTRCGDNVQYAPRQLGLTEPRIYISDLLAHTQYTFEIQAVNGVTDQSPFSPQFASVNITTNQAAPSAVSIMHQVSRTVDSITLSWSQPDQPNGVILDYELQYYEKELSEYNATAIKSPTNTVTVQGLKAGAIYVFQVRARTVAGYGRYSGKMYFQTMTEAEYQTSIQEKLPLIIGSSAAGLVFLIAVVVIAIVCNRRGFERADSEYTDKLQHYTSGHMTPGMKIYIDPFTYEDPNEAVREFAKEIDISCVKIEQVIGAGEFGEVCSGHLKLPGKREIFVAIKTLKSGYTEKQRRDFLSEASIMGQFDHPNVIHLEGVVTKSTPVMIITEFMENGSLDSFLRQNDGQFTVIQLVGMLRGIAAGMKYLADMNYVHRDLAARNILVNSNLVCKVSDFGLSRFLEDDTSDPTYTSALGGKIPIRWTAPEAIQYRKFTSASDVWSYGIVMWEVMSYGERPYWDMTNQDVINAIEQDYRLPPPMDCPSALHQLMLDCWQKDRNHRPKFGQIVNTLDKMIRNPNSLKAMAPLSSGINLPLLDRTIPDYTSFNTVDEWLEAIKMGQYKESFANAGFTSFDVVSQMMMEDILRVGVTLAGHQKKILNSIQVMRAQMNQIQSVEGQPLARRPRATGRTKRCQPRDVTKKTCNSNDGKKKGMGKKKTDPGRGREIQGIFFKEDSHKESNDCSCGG
# [10] = molecular target: JAK2 JH1 JH2 (human) (UniProt O60674)
# [11] = tested on: SGK1 (human), O00141 [S422D]
# [12] = molecular target: SYK (human) (UniProt P43405)
# [13] = molecular target: TBK1 (human) (UniProt Q9UHD2)
# [14] = molecular target: MAP3K7 TAB1 (human) (UniProt Q15750+O43318)
# [15] = molecular target: IRAK4 (human) (UniProt Q9NWZ3)
# Chain of IRAK4 (human) (Q9NWZ3 whole entry, looked up): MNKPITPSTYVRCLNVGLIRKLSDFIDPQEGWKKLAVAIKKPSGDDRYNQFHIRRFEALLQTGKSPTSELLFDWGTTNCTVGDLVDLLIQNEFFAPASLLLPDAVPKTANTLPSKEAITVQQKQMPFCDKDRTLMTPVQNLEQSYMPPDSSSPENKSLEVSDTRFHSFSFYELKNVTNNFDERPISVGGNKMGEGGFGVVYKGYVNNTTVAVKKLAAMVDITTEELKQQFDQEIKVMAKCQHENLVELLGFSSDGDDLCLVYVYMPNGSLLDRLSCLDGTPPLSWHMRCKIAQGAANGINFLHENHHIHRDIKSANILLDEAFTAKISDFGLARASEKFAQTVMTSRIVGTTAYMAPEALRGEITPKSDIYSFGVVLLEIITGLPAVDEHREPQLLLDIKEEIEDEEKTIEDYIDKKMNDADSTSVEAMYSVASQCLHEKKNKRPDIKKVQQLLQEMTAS
# [16] = molecular target: MAP3K11 (human) (UniProt Q16584)
# [17] = molecular target: EPHA4 (human) (UniProt P54764)
# [18] = molecular target: MAPK12 (human) (UniProt P53778)
# [19] = molecular target: BRSK1 (human) (UniProt Q8TDC3)
# [20] = molecular target: CSK (human) (UniProt P41240); conditions: compound 0.1 µM
# [21] = molecular target: MELK (human) (UniProt Q14680)
# [22] = molecular target: BRSK2 (human) (UniProt Q8IWQ3)
# [23] = molecular target: CSNK1D (human) (UniProt P48730)
# [24] = molecular target: TTK (human) (UniProt P33981)
# [25] = molecular target: INSR (human) (UniProt P06213)
# [26] = molecular target: MYLK (human) (UniProt Q15746)
# [27] = molecular target: RPS6KA3 KD1 KD2 (human) (UniProt P51812)
# [28] = molecular target: MAPKAPK3 (human) (UniProt Q16644)
# Chain of MAPKAPK3 (human) (Q16644 whole entry, looked up): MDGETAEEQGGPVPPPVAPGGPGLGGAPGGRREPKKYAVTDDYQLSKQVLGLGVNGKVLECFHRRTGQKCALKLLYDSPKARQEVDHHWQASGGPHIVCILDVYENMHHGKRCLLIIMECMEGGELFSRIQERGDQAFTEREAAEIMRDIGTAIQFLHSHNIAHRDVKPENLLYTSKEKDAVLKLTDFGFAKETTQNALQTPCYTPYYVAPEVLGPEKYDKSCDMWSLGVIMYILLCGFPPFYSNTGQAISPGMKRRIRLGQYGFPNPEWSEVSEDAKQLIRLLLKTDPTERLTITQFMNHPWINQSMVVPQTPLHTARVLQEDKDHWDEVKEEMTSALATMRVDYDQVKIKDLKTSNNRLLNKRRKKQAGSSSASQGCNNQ
# [29] = molecular target: PLK1 (human) (UniProt P53350)
# Chain of PLK1 (human) (P53350 whole entry, looked up): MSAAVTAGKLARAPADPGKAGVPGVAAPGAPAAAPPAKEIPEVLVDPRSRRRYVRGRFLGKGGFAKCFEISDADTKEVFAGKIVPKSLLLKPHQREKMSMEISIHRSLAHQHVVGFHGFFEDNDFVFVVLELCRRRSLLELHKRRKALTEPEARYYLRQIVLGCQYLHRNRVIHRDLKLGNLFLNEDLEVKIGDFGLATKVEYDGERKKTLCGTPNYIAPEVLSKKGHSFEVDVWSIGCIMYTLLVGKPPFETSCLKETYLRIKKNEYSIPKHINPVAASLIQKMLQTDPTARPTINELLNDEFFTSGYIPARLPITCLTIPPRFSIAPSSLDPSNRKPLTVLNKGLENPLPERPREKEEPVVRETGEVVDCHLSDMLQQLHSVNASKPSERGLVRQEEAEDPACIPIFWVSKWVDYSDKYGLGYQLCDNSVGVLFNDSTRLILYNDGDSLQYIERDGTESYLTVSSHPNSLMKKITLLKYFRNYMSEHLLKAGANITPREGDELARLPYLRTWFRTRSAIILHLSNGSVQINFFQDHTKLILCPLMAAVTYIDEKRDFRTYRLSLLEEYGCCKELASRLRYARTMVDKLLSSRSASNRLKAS
# [30] = molecular target: CDK2 CCNA2 (human) (UniProt P20248+P24941)
# [31] = molecular target: INSRR (human) (UniProt P14616)
# [32] = molecular target: AURKA (human) (UniProt O14965)
# [33] = molecular target: PIM3 (human) (UniProt Q86V86)
# [34] = molecular target: FLT1 (human) (UniProt P17948)
# Chain of FLT1 (human) (P17948 whole entry, looked up): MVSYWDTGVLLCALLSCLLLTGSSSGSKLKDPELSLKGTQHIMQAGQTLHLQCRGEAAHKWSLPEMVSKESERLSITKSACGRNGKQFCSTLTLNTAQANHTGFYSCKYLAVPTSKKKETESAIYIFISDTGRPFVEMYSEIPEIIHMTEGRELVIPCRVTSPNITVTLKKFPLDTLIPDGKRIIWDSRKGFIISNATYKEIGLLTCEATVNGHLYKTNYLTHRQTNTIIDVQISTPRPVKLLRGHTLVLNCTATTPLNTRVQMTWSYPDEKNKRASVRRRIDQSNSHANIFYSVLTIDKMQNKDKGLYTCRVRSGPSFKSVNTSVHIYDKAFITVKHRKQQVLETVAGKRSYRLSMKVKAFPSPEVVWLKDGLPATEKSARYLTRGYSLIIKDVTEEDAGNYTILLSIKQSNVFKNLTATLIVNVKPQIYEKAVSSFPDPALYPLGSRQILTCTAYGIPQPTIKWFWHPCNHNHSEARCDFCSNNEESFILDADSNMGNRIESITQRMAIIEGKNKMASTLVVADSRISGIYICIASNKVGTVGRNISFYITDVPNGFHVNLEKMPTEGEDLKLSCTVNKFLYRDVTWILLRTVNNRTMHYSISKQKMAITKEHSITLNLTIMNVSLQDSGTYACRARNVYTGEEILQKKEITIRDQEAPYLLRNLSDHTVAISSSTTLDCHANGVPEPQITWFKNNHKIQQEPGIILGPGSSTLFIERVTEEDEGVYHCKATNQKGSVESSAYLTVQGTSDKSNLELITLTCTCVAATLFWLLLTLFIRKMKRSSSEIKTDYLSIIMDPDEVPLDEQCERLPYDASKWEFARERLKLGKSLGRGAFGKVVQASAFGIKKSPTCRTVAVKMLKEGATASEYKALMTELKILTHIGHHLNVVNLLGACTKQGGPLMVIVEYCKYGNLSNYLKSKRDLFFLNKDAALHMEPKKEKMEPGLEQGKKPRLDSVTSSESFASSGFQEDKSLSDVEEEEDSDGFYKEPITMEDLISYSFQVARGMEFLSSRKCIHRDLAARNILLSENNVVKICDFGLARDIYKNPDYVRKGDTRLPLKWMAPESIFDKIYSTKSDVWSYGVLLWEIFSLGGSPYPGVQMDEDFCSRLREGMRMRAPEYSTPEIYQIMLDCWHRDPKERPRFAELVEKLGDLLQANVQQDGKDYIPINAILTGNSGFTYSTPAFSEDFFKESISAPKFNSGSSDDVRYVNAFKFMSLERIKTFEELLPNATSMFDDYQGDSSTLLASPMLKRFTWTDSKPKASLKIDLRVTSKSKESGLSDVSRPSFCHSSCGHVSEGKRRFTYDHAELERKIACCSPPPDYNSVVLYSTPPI
# [35] = molecular target: CLK2 (human) (UniProt P49760)
# Chain of MAPK8 (human) (P45983 whole entry, looked up): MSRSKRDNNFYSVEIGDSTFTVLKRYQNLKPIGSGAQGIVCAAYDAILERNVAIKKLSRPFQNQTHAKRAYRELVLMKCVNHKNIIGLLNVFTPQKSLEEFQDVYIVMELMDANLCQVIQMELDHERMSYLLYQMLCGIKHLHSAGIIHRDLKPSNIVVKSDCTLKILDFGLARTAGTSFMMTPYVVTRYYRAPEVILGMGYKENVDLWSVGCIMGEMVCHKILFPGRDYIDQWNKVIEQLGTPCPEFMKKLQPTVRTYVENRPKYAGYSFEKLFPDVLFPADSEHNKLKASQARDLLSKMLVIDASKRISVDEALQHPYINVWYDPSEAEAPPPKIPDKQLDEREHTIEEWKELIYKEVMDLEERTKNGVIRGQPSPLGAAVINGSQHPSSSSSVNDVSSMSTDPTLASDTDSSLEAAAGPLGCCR
# Chain of PIM1 (human) (P11309 whole entry, looked up): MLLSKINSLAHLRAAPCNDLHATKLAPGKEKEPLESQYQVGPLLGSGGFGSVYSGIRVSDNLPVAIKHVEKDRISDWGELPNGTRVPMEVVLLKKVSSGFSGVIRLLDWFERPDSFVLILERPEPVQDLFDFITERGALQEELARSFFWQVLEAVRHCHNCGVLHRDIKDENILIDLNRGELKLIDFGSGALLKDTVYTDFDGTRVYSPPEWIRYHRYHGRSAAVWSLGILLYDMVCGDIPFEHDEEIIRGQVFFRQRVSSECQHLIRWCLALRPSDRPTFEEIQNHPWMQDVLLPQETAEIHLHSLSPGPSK
structure (smiles),measurement,setting,value
COc1cc(O)c2c(c1)[C@H]1OC1C[C@H](O)[C@H](O)C(=O)/C=C\C[C@H](C)OC2=O (stereo not given in full),residual activity,[1]; compound 0.01 µM,118%
same,residual activity,[1]; compound 0.1 µM,154%
same,residual activity,[2]; compound 0.01 µM,74%
same,residual activity,[2]; compound 0.1 µM,21%
same,residual activity,[2]; compound 1.0 µM,9%
same,residual activity,[3]; compound 0.01 µM,103%
same,residual activity,[3]; compound 0.1 µM,99%
same,residual activity,[4]; compound 0.01 µM,90%
same,residual activity,[4]; compound 0.1 µM,87%
same,residual activity,[4]; compound 1.0 µM,92%
same,residual activity,[5]; compound 0.01 µM,104%
same,residual activity,[5]; compound 0.1 µM,98%
same,residual activity,[5]; compound 1.0 µM,80%
same,residual activity,[6]; compound 0.01 µM,99%
same,residual activity,[6]; compound 0.1 µM,94%
same,residual activity,[6]; compound 1.0 µM,95%
same,residual activity,[7]; compound 0.01 µM,104%
same,residual activity,[7]; compound 0.1 µM,102%
same,residual activity,[7]; compound 1.0 µM,85%
same,residual activity,[8]; compound 0.01 µM,87%
same,residual activity,[8]; compound 0.1 µM,92%
same,residual activity,[8]; compound 1.0 µM,106%
same,residual activity,[9]; compound 0.01 µM,124%
same,residual activity,[9]; compound 0.1 µM,118%
same,residual activity,[9]; compound 1.0 µM,115%
same,residual activity,[10]; compound 0.01 µM,84%
same,residual activity,[10]; compound 0.1 µM,101%
same,residual activity,[11]; compound 0.01 µM,93%
same,residual activity,[11]; compound 0.1 µM,91%
same,residual activity,[11]; compound 1.0 µM,104%
same,residual activity,[12]; compound 0.1 µM,108%
same,residual activity,[12]; compound 1.0 µM,85%
same,residual activity,[13]; compound 0.01 µM,110%
same,residual activity,[13]; compound 0.1 µM,112%
same,residual activity,[13]; compound 1.0 µM,93%
same,residual activity,[14]; compound 0.01 µM,101%
same,residual activity,[14]; compound 0.1 µM,48%
same,residual activity,[14]; compound 1.0 µM,2%
same,residual activity,[15]; compound 0.01 µM,112%
same,residual activity,[15]; compound 0.1 µM,99%
same,residual activity,[15]; compound 1.0 µM,57%
same,residual activity,[16]; compound 0.1 µM,102%
same,residual activity,[16]; compound 1.0 µM,90%
same,residual activity,[17]; compound 0.01 µM,109%
same,residual activity,[17]; compound 0.1 µM,122%
same,residual activity,[17]; compound 1.0 µM,107%
same,residual activity,[18]; compound 0.01 µM,100%
same,residual activity,[18]; compound 0.1 µM,105%
same,residual activity,[19]; compound 0.01 µM,90%
same,residual activity,[19]; compound 0.1 µM,90%
same,residual activity,[19]; compound 1.0 µM,82%
same,residual activity,[20],105%
same,residual activity,[21]; compound 0.01 µM,92%
same,residual activity,[21]; compound 0.1 µM,100%
same,residual activity,[21]; compound 1.0 µM,104%
same,residual activity,[22]; compound 0.01 µM,114%
same,residual activity,[22]; compound 0.1 µM,93%
same,residual activity,[22]; compound 1.0 µM,96%
same,residual activity,[23]; compound 0.01 µM,116%
same,residual activity,[23]; compound 0.1 µM,101%
same,residual activity,[24]; compound 0.01 µM,101%
same,residual activity,[24]; compound 0.1 µM,95%
same,residual activity,[24]; compound 1.0 µM,101%
same,residual activity,[25]; compound 0.01 µM,112%
same,residual activity,[25]; compound 0.1 µM,116%
same,residual activity,[25]; compound 1.0 µM,97%
same,residual activity,[26]; compound 0.01 µM,108%
same,residual activity,[26]; compound 0.1 µM,102%
same,residual activity,[26]; compound 1.0 µM,96%
same,residual activity,[27]; compound 0.01 µM,129%
same,residual activity,[27]; compound 0.1 µM,125%
same,residual activity,[27]; compound 1.0 µM,129%
same,residual activity,[28]; compound 0.01 µM,105%
same,residual activity,[28]; compound 0.1 µM,99%
same,residual activity,[28]; compound 1.0 µM,99%
same,residual activity,[29]; compound 0.01 µM,102%
same,residual activity,[29]; compound 0.1 µM,107%
same,residual activity,[29]; compound 1.0 µM,114%
same,residual activity,[30]; compound 0.01 µM,91%
same,residual activity,[30]; compound 0.1 µM,81%
same,residual activity,[30]; compound 1.0 µM,76%
same,residual activity,[31]; compound 0.01 µM,104%
same,residual activity,[31]; compound 0.1 µM,108%
same,residual activity,[31]; compound 1.0 µM,113%
same,residual activity,[32]; compound 0.01 µM,106%
same,residual activity,[32]; compound 0.1 µM,103%
same,residual activity,[32]; compound 1.0 µM,108%
same,residual activity,[33]; compound 0.01 µM,92%
same,residual activity,[33]; compound 0.1 µM,98%
same,residual activity,[33]; compound 1.0 µM,99%
same,residual activity,[34]; compound 0.01 µM,65%
same,residual activity,[34]; compound 0.1 µM,5%
same,residual activity,[34]; compound 1.0 µM,3%
same,residual activity,[35]; compound 0.01 µM,94%
same,residual activity,[35]; compound 0.1 µM,100%
